Patent US20220401429A1, “USE OF ANAMORELIN TO TREAT CANCER-RELATED FATIGUE” (Helsinn Healthcare SA, priority 2021, published 2022)
Like-named read-outs stand apart in the source and are kept apart here.

Experiments:
[1] = test system: cachectic patients with non-small cell lung cancer; conditions: cited from earlier work
[2] = test system: patients with advanced cancer; test: FACIT-F fatigue subscale, single arm study of anamorelin (Example 1); type: in vivo, human; conditions: for FACIT-F Fatigue Subscale, change, Mean (±SD): change from baseline, 100 mg oral daily + physical activity + nutritional counseling
Description: This study was undertaken to isolate and evaluate anamorelin's effect on fatigue, energy expenditure, and other side effects of cancer in a cancer-stricken population, by including in the study population only those patients suffering significant levels of fatigue and inflammatory activity, excluding from the study population confounding factors such as depression and anemia, and controlling for a consistent level of nutrition and physical exercise.
(§1) In this single arm study, 38 patients were intended for treatment with anamorelin for 6 weeks with an optional extension phase of 6 more weeks based on tolerability and safety and patient willingness. Patients received anamorelin 100 mg tablets and physical activity for 6 weeks for the intervention phase. Patients took 1 tablet orally while fasting (at least 1 hour before a meal).
• diagnosis of advanced cancer (metastatic or recurrent incurable solid tumors excluding prostate cancer) • fatigue on FACIT-F subscale of ≤34 on a 0 to 52 scale [in which 52=no fatigue and 0=worst possible fatigue] • CRP ≥3 mg/L* in the absence of any other more likely cause of increased CRP like an infection or an autoimmune disorder • unintentional weight loss of from 2% to 15% at any time within the previous 12 months • No evidence of moderate to severe depression as determined by a HADS depression score of ≤13 • Hemoglobin level ≥9 g/dL
A primary objective of the study was to examine the effects of anamorelin and standardized physical activity and nutritional counseling on changes in the Functional Assessment of […] (FACIT-F) subscale score at Day 43±3 days compared to baseline in patients with advanced cancer receiving oral anamorelin 100 mg daily and standardized physical activity and nutritional counseling.
FACIT-F is a well-validated QOL instrument in cancer patients (Cella, Tulsky et al. 1993). The 13-item fatigue subscale is a patient-rated assessment of intensity of fatigue and its related symptoms on a scale of 0 to 4.

[3] = test system: patients with advanced cancer; test: PROMIS-Fatigue, Example 1 study; type: in vivo, human; conditions: change from baseline, 100 mg oral daily + physical activity + nutritional counseling
Method: as §1
(§2) Secondary objectives of the study were to examine the effects of anamorelin and standardized physical activity and nutritional counseling on Health-related quality of life and patient reported outcomes as measured by The Multidimensional Fatigue Symptom Inventory-Short Form[MFSI-SF], PROMIS-Fatigue, Hospital Anxiety Depression Scale (HADS), Edmonton Symptom Assessment Scale (ESAS), Functional Assessment of Cancer Therapy (FACT-G), and its Functional Assessment of Anorexia/Cachexia Treatment (FAACT) subscale in these patients.
PROMIS measures key symptoms and health concepts applicable to advanced cancer, enabling efficient and interpretable clinical trial research and clinical practice application of patient-reported outcomes (PROs) (Rothrock, Hays et al. 2010, Yost, Eton et al. 2011).

[4] = test system: patients with advanced cancer; test: FAACT Anorexia/Cachexia subscale, Example 1 study; type: in vivo, human; conditions: change from baseline, 100 mg oral daily + physical activity + nutritional counseling
Method: as §1, §2
The FAACT-Anorexia/Cachexia subscale is a 12-item symptom-specific subscale designed to measure patients' additional concerns about their anorexia/cachexia during the previous 7 days. The FAACT has internal consistency and a reliability coefficient (Cronbach's alpha) of 0.88 for the 12 components (Ribaudo, Cella et al. 2000). Patients rate the intensity of anorexia/cachexia and its related symptoms on a 0-4 scale like that used in the FACIT-F.

[5] = test system: patients with advanced cancer; test: FACT-G, Example 1 study; type: in vivo, human; conditions: change from baseline, 100 mg oral daily + physical activity + nutritional counseling
Method: as §1, §2
The FACT-G is a 27-item compilation of general questions divided into four primary domains: Physical Well-Being, Social/Family Well-Being, Emotional Well-Being, and Functional Well-Being. It is appropriate for use in patients with any form of cancer, and extensions of it have been used and validated in other chronic illness conditions as well (Cella, Tulsky et al. 1993, Webster, Cella et al. 2003). The FACT-G is the first 2 pages of FACIT-F.

[6] = test system: patients with advanced cancer; test: Physical performance tests (30 second chair stand test, 6-minute walk test), Example 1 study; type: in vivo, human; conditions: Day 43 vs baseline, 100 mg oral daily + physical activity + nutritional counseling
Method: as §1
(§3) Exploratory objectives of the study were to explore the effects of anamorelin and standardized physical activity and nutritional counseling on muscle function (as measured by the 30 second chair stand test, 6 minute walk test, day time activity (accelerometer), body composition (as measured by INBODY), and Resting Energy Expenditure (measured by indirect calorimetry)
Measures: We used the 30 second chair stand test, six-minute walk test, and an accelerometer. A self-report exercise questionnaire, the Godin Leisure-Time physical activity questionnaire, was used to complement the objective measures. […]
Physical Performance Tests: The 30 second chair stand test, 6-minute walk test, and Godin Leisure-Time physical activity questionnaire were administered at baseline and on Day 43. The 30 second sit-to-stand task assessed lower body strength (Rikli and Jones 1999).
In the six-minute walk test, participants were asked to walk as fast and as far as they can for six minutes, and the distance walked was measured. […]

[7] = test system: patients with advanced cancer; test: Global Symptom Evaluation, Example 1 study; type: in vivo, human; conditions: time point not clearly stated; 100 mg oral daily + physical activity + nutritional counseling
Method: as §1

[8] = test system: patients with advanced cancer; test: Daytime activity by accelerometer (actigraphy), Example 1 study; type: in vivo, human; conditions: 100 mg oral daily + physical activity + nutritional counseling
Method: as §1, §3
Measures: We used the 30 second chair stand test, six-minute walk test, and an accelerometer. A self-report exercise questionnaire, the Godin Leisure-Time physical activity questionnaire, was used to complement the objective measures. IM Systems-three dimensional accelerometers (“Biotrainer-Pro”) was used to objectively measure physical activity.

[9] = test system: Patients With Non—Small Cell Lung Cancer and Cachexia; conditions: study by Katakami and Uchino et al. 2018; cited from earlier work
[10] = test system: patients with advanced cancer; test: Adverse events, Example 1 study; type: in vivo, human; conditions: 100 mg oral daily, 6 weeks with optional 6 week extension
Method: as §1

[11] = test system: patients with advanced cancer; test: Pittsburgh Sleep Quality Index (PSQI), Example 1 study; type: in vivo, human; conditions: 100 mg oral daily + physical activity + nutritional counseling
Method: as §1

[12] = ROMANA 1 and ROMANA 2, both studies

SMILES: CN(C)N(C)C(=O)[C@@]1(Cc2ccccc2)CCCN(C(=O)[C@@H](Cc2c[nH]c3ccccc23)NC(=O)C(C)(C)N)C1 [anamorelin]
- Effect size for improvement in CRF ([1]; ROMANA 1): 0.16
- Effect on fatigue using the FACIT-F [1, 12]: unable to detect a significant effect
- Effect on strength measured by handgrip strength [1, 12]: unable to detect a significant effect
- Effect size for improvement in CRF ([1]; ROMANA 2): 0.008
- Treat fatigue and improve handgrip strength, pooled post-hoc analysis ([1]; higher BMIs): ineffective
- Treat fatigue and improve handgrip strength, pooled post-hoc analysis ([1]; patients with BMI less than 20 kg/m^2): effective
- FACIT-F increase from baseline, linear mixed model with time as categorical variable ([2]; 43-day measure): 4.89
- FACIT-F Fatigue Subscale, change, Mean (±SD) ([2]; Day 15 (N = 28)): 3.89 (±8.71),
- FACIT-F Fatigue Subscale, change, Mean (±SD) ([2]; Day 29 (N = 28)): 6.32 (±9.53),
- FACIT-F Fatigue Subscale, change, Mean (±SD) ([2]; Day 86 (N = 8)): 8.13 (±12.62),
- Effect size for improvement in CRF ([2]; this study, FACIT-F Day 43 (Cohen's D)): 0.37
- FACIT-F average increase over time, linear mixed model ([2]; time effect, FIG. 1): 0.11 units per day
- PROMIS-Fatigue, change, Mean (±SD) ([3]; Day 15 (N = 28)): −2.74 (±6.12),
- PROMIS-Fatigue, change, Mean (±SD) ([3]; Day 29 (N = 28)): −3.64 (±8.22),
- PROMIS-Fatigue, change, Mean (±SD) ([3]; Day 86 (N = 8)): −6.36 (±6.32),
- FAACT-A/CS Total, change, Mean (±SD) ([4]; Day 15 (N = 28)): 1.70 (±4.89),
- FAACT-A/CS Total, change, Mean (±SD) ([4]; Day 29 (N = 28)): 4.53 (±5.54),
- FAACT-A/CS Total, change, Mean (±SD) ([4]; Day 86 (N = 8)): −5.86 (±3.72),
- FACT-G Total, change, Mean (±SD) ([5]; Day 15 (N = 28)): 0.59 (±9.17),
- FACT-G Total, change, Mean (±SD) ([5]; Day 29 (N = 28)): 1.31 (±8.97),
- FACT-G Total, change, Mean (±SD) ([5]; Day 43 (N = 28)): −1.10 (±10.71),
- FACT-G Total, change, Mean (±SD) ([5]; Day 86 (N = 8)): 4.54 (±7.65),
- Improvement in the physical performance outcomes [6]: no significant improvement
- Global Symptom Evaluation: About the same N (%) [7]: 9 (36%)
- Global Symptom Evaluation: Better N (%) [7]: 13 (52%)
- Global Symptom Evaluation: Worse N (%) [7]: 3 (12%)
- Improvement in mean daytime activity (actigraphy activity measure) [8]: no significant improvement
- Effect size for improvement in CRF [9]: 0.057
- Severe (≥grade 3) adverse events related to the study drug [10]: No severe (≥grade 3) adverse events
- PSQI (N = 15), change, Mean (±SD) ([11]; Day 29, change from baseline): −0.09 (±4.18),
- PSQI (N = 15), change, Mean (±SD) ([11]; Day 43, change from baseline): −0.09 (±2.12),
- PSQI (N = 15), change, Mean (±SD) ([11]; Day 86, change from baseline): −0.50 (±2.95),
